Patent US20100069364A1, “SUBSTITUTED PYRAZOLINE COMPOUNDS WITH ACAT INHIBITION ACTIVITY, THEIR PREPARATION AND USE AS MEDICAMENTS” (LABORATORIOS DEL DR. ESTEVE, S.A., priority 2007, published 2010)
Where two headings read alike, the source gives them in different places.

Assays:
[1] = tested on: T1, ACAT (Acyl CoA-Cholesterol Acyltransferase); assay: In-vitro determination of inhibition of ACAT in hepatic microsomes, [14C]-Palmitoyl CoA substrate; type: biochemical, Wistar rats; details: rat hepatic microsomes
T1 construct: other: 10^−4 M; rat hepatic microsomes; other: 3 × 10^−5 M; other: 10^−5 M; ot
Description: I. In-Vitro Determination of Inhibition of ACAT (Acyl CoA-Cholesterol Acyltransferase)
The in-vitro determination of the inhibition of the enzyme ACAT by the compounds of the invention is carried out in principle as described in the publication of Largis EE, Wang CH, DeVries VG and Schaffer SA (1989), “A Novel inhibitor of ACAT-catalyzed cholesterol esterification and cholesterol absorption”, J. Lipid Res. 30, 681-689, (1989), whereby hepatic microsomes are used. The radio-substrate used is [^14C]-Palmitoyl CoA. The respective parts of the description are hereby incorporated by reference and forms part of the present disclosure.
Briefly hepatic microsomes were prepared from the Wistar rats. Enzyme inhibition experiments were performed in presence of 18 μM [^14C]-Palmitoyl CoA as substrate. The vehicle used was 1% DMSO. Compounds to be tested were present at various concentrations and the incubation buffer used was 0.2 M Phosphate buffer, pH 7.4 at 25° C. After a 15 minutes preincubation period at 37° C. an incubation period of 10 minutes at 37° C. followed. Quantification of [^14C]Cholesterol ester was done by column chromatography.
The inhibition of the enzyme ACAT by the inventive substituted pyrazoline compounds was determined as described above.

[2] = target: ACAT (Acyl CoA-Cholesterol Acyltransferase); details: reported value for the reference compound; cited from earlier work
[3] = 3 × 10^−5 M, second table (other experiment)
[4] = 3 × 10^−6 M, second table (other experiment)
[5] = 10^−4 M, second table (other experiment)
[6] = 10^−5 M, second table (other experiment)
[7] = second table (other experiment)

SMILES | ACAT Inhibition (%) at various concentration of example ([1]; 3 × 10^−5 M, first table) [%] | ACAT Inhibition (%) at various concentration of example ([1]; 3 × 10^−6 M, first table) [%] | ACAT Inhibition (%) at various concentration of example ([1]; 10^−4 M, first table) [%] | ACAT Inhibition (%) at various concentration of example ([1]; 10^−5 M, first table) [%] | ACAT Inhibition (%) at various concentration of example ([1]; 10^−6 M, first table) [%] | IC50 ([1]; first table) [µM] | ACAT Inhibition (%) at various concentration of example [1, 3] [%] | ACAT Inhibition (%) at various concentration of example [1, 4] [%] | ACAT Inhibition (%) at various concentration of example [1, 5] [%] | ACAT Inhibition (%) at various concentration of example [1, 6] [%] | IC50 [1, 7] [µM] | IC50 [2] [µM] | ACAT Inhibition (%) at various concentration of example ([1]; 3 × 10^−7 M, first table) [%]
CC1(c2ccc(Cl)cc2)CC(C(=O)NC2CCCCCC2)=NN1c1ccc(Cl)cc1Cl (stereo not shown) [Example 1, 5-(4-Chloro-phenyl)-1-(2,4-dichloro-phenyl)-5-methyl-4,5-dihydro-1H-pyrazole-3-carboxylic acid cycloheptylamide] | 54 | 14 | 62 | 46 | −1 | 27.5 |  |  |  |  |  |  | 
CC1(c2ccc(Cl)cc2)CC(C(=O)NN2CCCCC2)=NN1c1ccc(Cl)cc1Cl.Cl (stereo not shown) [Example 3, 5-(4-Chloro-phenyl)-1-(2,4-dichloro-phenyl)-5-methyl-4,5-dihydro-1H-pyrazole-3-carboxylic acid piperidin-1-ylamide; hydrochloride] | 79 | 30 | 92 | 56 | 10 | 7.63 | 85 | 34 | 98 | 62 | 5.96 |  | 
CC[C@H](C)C(=O)O[C@H]1C[C@@H](C)C=C2C=C[C@H](C)[C@H](CC[C@@H]3C[C@@H](O)CC(=O)O3)[C@H]21 [Lovastatin, reference compound] |  |  |  |  |  | 22.7 |  |  |  |  | 12.5 | 29 | 
CC1(c2ccc(Cl)cc2)CC(C(=O)NN2CCCCCC2)=NN1c1ccc(Cl)cc1Cl.Cl (stereo not shown) [Example 2, 5-(4-Chloro-phenyl)-1-(2,4-dichloro-phenyl)-5-methyl-4,5-dihydro-1H-pyrazole-3-carboxylic acid azepan-1-ylamide; hydrochloride] | 91 | 32 |  | 68 | 20 | 4.93 | 94 | 37 | 98 | 75 | 4.39 |  | 10
